PubChem BioAssay (NCI)
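Step 1: Grow cells in 96-well plates. Step 2: Expose to compound for 48 hours at 5 concentrations. Step 3: Interpolate endpoints linearly; if unreached, use highest concentration. GI50 = concentration required for 50% inhibition of growth. TGI marks complete inhibition of growth.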

What was measured:
Assay in all cases: growth of human tumour cells (NCI), 48 h
786-0 renal = system: 786-0 renal
A498 renal = system: A498 renal
A549 NSCLC = system: A549 NSCLC
ACHN renal = system: ACHN renal
BT-549 breast = system: BT-549 breast
CAKI-1 renal = system: CAKI-1 renal
CCRF-CEM leukemia = system: CCRF-CEM leukemia
COLO 205 colon = system: COLO 205 colon
DU-145 prostate = system: DU-145 prostate
EKVX NSCLC = system: EKVX NSCLC
HCC-2998 colon = system: HCC-2998 colon
HCT-116 colon = system: HCT-116 colon
HCT-15 colon = system: HCT-15 colon
HL-60(TB) leukemia = system: HL-60(TB) leukemia
HOP-62 NSCLC = system: HOP-62 NSCLC
HOP-92 NSCLC = system: HOP-92 NSCLC
HS 578T breast = system: HS 578T breast
HT29 colon = system: HT29 colon
IGROV1 ovarian = system: IGROV1 ovarian
K-562 leukemia = system: K-562 leukemia
KM12 colon = system: KM12 colon
LOX IMVI melanoma = system: LOX IMVI melanoma
M14 melanoma = system: M14 melanoma
MALME-3M melanoma = system: MALME-3M melanoma
MCF7 breast = system: MCF7 breast
MDA-MB-231 breast = system: MDA-MB-231 breast
MDA-MB-435 = system: MDA-MB-435
MDA-MB-468 breast = system: MDA-MB-468 breast
MOLT-4 leukemia = system: MOLT-4 leukemia
NCI-H226 lung = system: NCI-H226 lung
NCI-H23 lung = system: NCI-H23 lung
NCI-H460 lung = system: NCI-H460 lung
NCI-H522 lung = system: NCI-H522 lung
NCI/ADR-RES ovarian = system: NCI/ADR-RES ovarian
OVCAR-3 ovarian = system: OVCAR-3 ovarian
OVCAR-4 ovarian = system: OVCAR-4 ovarian
OVCAR-5 ovarian = system: OVCAR-5 ovarian
OVCAR-8 ovarian = system: OVCAR-8 ovarian
PC-3 prostate = system: PC-3 prostate
RPMI-8226 leukemia = system: RPMI-8226 leukemia
RXF 393 renal = system: RXF 393 renal
SF-268 CNS = system: SF-268 CNS
SF-295 CNS = system: SF-295 CNS
SF-539 CNS = system: SF-539 CNS
SK-MEL-2 melanoma = system: SK-MEL-2 melanoma
SK-MEL-28 melanoma = system: SK-MEL-28 melanoma
SK-MEL-5 melanoma = system: SK-MEL-5 melanoma
SK-OV-3 ovarian = system: SK-OV-3 ovarian
SN12C renal = system: SN12C renal
SNB-19 CNS = system: SNB-19 CNS
SNB-75 CNS = system: SNB-75 CNS
SR leukemia = system: SR leukemia
SW-620 colon = system: SW-620 colon
T-47D breast = system: T-47D breast
TK-10 renal = system: TK-10 renal
U251 CNS = system: U251 CNS
UACC-257 melanoma = system: UACC-257 melanoma
UACC-62 melanoma = system: UACC-62 melanoma
UO-31 renal = system: UO-31 renal

## Nc1nnc(-c2c[nH]c3ncc(Br)cc23)c(-c2c[nH]c3ccc(Br)cc23)n1
786-0 renal
  GI50: 8.24 µM
  TGI: 23.2 µM
A498 renal
  GI50: 13.7 µM
  TGI: 29 µM
A549 NSCLC
  GI50: 10.9 µM
  TGI: 44.5 µM
ACHN renal
  GI50: 6.04 µM
  TGI: 19.6 µM
BT-549 breast
  GI50: 2.71 µM
  TGI: 12 µM
CAKI-1 renal
  GI50: 4.02 µM
  TGI: 17.9 µM
CCRF-CEM leukemia
  GI50: 2.33 µM
  TGI: > 100 µM
COLO 205 colon
  GI50: 3.35 µM
  TGI: 14.9 µM
DU-145 prostate
  GI50: 7.24 µM
  TGI: 21.1 µM
EKVX NSCLC
  GI50: 10.2 µM
  TGI: 26.3 µM
HCC-2998 colon
  GI50: 14 µM
  TGI: 28.9 µM
HCT-116 colon
  GI50: 3.82 µM
  TGI: 18.9 µM
HCT-15 colon
  GI50: 4.41 µM
  TGI: 19.1 µM
HL-60(TB) leukemia
  GI50: 1.99 µM
  TGI: 16.3 µM
HOP-62 NSCLC
  GI50: 5.26 µM
  TGI: 20.2 µM
HOP-92 NSCLC
  GI50: 4.06 µM
  TGI: 24.3 µM
HS 578T breast
  GI50: 4.47 µM
  TGI: 28.8 µM
HT29 colon
  GI50: 5.74 µM
  TGI: 26 µM
IGROV1 ovarian
  GI50: 6.29 µM
  TGI: 24.4 µM
K-562 leukemia
  GI50: 0.497 µM
  TGI: 16.8 µM
KM12 colon
  GI50: 6.18 µM
  TGI: 23.6 µM
LOX IMVI melanoma
  GI50: 5.39 µM
  TGI: 23.3 µM
M14 melanoma
  GI50: 4.67 µM
  TGI: 22.2 µM
MALME-3M melanoma
  GI50: 4.61 µM
  TGI: 25.8 µM
MCF7 breast
  GI50: 0.92 µM
  TGI: 18.5 µM
MDA-MB-231 breast
  GI50: 13.1 µM
  TGI: 32.5 µM
MDA-MB-435
  GI50: 0.379 µM
  TGI: 16.1 µM
MDA-MB-468 breast
  GI50: 1.57 µM
  TGI: 8.83 µM
MOLT-4 leukemia
  GI50: 1.89 µM
  TGI: 12.7 µM
NCI-H226 lung
  GI50: 3.77 µM
  TGI: 26.9 µM
NCI-H23 lung
  GI50: 11.3 µM
  TGI: 26.2 µM
NCI-H460 lung
  GI50: 5.14 µM
  TGI: 24.4 µM
NCI-H522 lung
  GI50: 0.403 µM
  TGI: 15.3 µM
NCI/ADR-RES ovarian
  GI50: 13.4 µM
  TGI: 36.4 µM
OVCAR-3 ovarian
  GI50: 3 µM
  TGI: 12.7 µM
OVCAR-4 ovarian
  GI50: 5.78 µM
  TGI: 21.7 µM
OVCAR-5 ovarian
  GI50: 10.8 µM
  TGI: 27.3 µM
OVCAR-8 ovarian
  GI50: 10.4 µM
  TGI: 30.4 µM
PC-3 prostate
  GI50: 3.6 µM
  TGI: 22.4 µM
RPMI-8226 leukemia
  GI50: 4.68 µM
  TGI: 50.4 µM
RXF 393 renal
  GI50: 1.78 µM
  TGI: 7.03 µM
SF-268 CNS
  GI50: 8.72 µM
  TGI: 34 µM
SF-295 CNS
  GI50: 5.4 µM
  TGI: 20.8 µM
SF-539 CNS
  GI50: 3.48 µM
  TGI: 17.2 µM
SK-MEL-2 melanoma
  GI50: 6.31 µM
  TGI: 23.1 µM
SK-MEL-28 melanoma
  GI50: 10.5 µM
  TGI: 24.4 µM
SK-MEL-5 melanoma
  GI50: 3.06 µM
  TGI: 13.9 µM
SK-OV-3 ovarian
  GI50: 10.6 µM
  TGI: 24.4 µM
SN12C renal
  GI50: 7.31 µM
  TGI: 23.6 µM
SNB-19 CNS
  GI50: 10.9 µM
  TGI: 33.7 µM
SNB-75 CNS
  GI50: 1.56 µM
  TGI: 8.26 µM
SR leukemia
  GI50: 0.378 µM
  TGI: 14.8 µM
SW-620 colon
  GI50: 5.32 µM
  TGI: 27.2 µM
T-47D breast
  GI50: 4.16 µM
  TGI: 26.2 µM
TK-10 renal
  GI50: 15.1 µM
  TGI: 33.5 µM
U251 CNS
  GI50: 10.1 µM
  TGI: 29.7 µM
UACC-257 melanoma
  GI50: 12.4 µM
  TGI: 29.7 µM
UACC-62 melanoma
  GI50: 3.79 µM
  TGI: 18.8 µM
UO-31 renal
  GI50: 4.58 µM
  TGI: 20.7 µM
